Reference: ChEMBL document CHEMBL6115028, “An Amazing 30-Year Journey around the DABO Family: A Medicinal Chemistry Lesson on a Versatile Class of Non-nucleoside HIV-1 Reverse Transcriptase Inhibitors” (J Med Chem, 2025)
Values after ≈ are worked out from the molar mass of the structure shown.

Key:
[1] = Cytotoxicity against human PBMC cells; type: toxicity, cell-based
[2] = system: Human immunodeficiency virus 1; test: Antiviral activity against HIV-1 IIIB infected in human MT2 cells assessed as inhibition of viral growth; type: functional, organism-based; conditions: Human immunodeficiency virus 1, IIIB
[3] = system: MT2; test: Cytotoxicity against human MT2 cells assessed as reduction in cell growth; type: functional, cell-based
[4] = system: C8166; test: Cytotoxicity against human C8166 cells assessed as reduction in cell growth measured after 3 days by MTT assay; type: functional; conditions: C8166, 72 h, time 3 day
[5] = system: Human immunodeficiency virus 1; test: Antiviral activity against HIV-1 KM018 infected in human […] cells at 0.03 MOI assessed as reduction in viral replication incubated for 2 hrs by ELISA analysis; type: functional, organism-based; conditions: Human immunodeficiency virus 1, KM018, C8166, 2 h
[6] = system: Human immunodeficiency virus 1; test: Antiviral activity against HIV-1 A17 infected in human […] cells at 0.03 MOI assessed as reduction in viral replication incubated for 2 hrs by ELISA analysis; type: functional, organism-based; conditions: Human immunodeficiency virus 1, A17, C8166, 2 h
[7] = system: MT4; test: Cytotoxicity against human MT4 cells assessed as reduction in cell growth measured after 3 days by MTT assay; type: functional; conditions: MT4, 72 h, time 3 day
[8] = system: Human immunodeficiency virus 1; test: Antiviral activity against HIV-1 TC-2 infected in human […] cells at 0.03 MOI assessed as reduction in viral replication incubated for 2 hrs by ELISA analysis; type: functional, organism-based; conditions: Human immunodeficiency virus 1, TC-2, C8166, 2 h
[9] = system: Human immunodeficiency virus 1; test: Antiviral activity against HIV-1 NL4-3 harboring reverse transcriptase V106A mutant infected in human C8166 cells assessed as reduction in virus-induced cytopathic effect measured for 2 hrs by ELISA analysis; type: functional, organism-based; conditions: Human immunodeficiency virus 1, NL4-3, C8166, 2 h
[10] = Solubility in water; type: physicochemical
[11] = system: Human immunodeficiency virus 1; test: Antiviral activity against HIV-1 WAN infected in human […] cells at 0.03 MOI assessed as reduction in viral replication incubated for 2 hrs by ELISA analysis; type: functional, organism-based; conditions: Human immunodeficiency virus 1, WAN, C8166, 2 h
[12] = target: T1, Human immunodeficiency virus type 1 reverse transcriptase (Human immunodeficiency virus 1, UniProt Q72547); test: Inhibition of HIV-1 Reverse transcriptase
[13] = system: Human immunodeficiency virus 1; test: Antiviral activity against HIV-1 MN infected in human […] cells at 0.03 MOI assessed as reduction in viral replication incubated for 2 hrs by ELISA analysis; type: functional, organism-based; conditions: Human immunodeficiency virus 1, MN, C8166, 2 h
[14] = system: Human immunodeficiency virus 1; test: Antiviral activity against HIV-1 NL4-3 harboring reverse transcriptase K103N mutant infected in human C8166 cells assessed as reduction in virus-induced cytopathic effect measured for 2 hrs by ELISA analysis; type: functional, organism-based; conditions: Human immunodeficiency virus 1, NL4-3, C8166, 2 h
[15] = system: Human immunodeficiency virus 1; test: Antiviral activity against HIV-1 NL4-3 harboring reverse transcriptase Y181C mutant infected in human C8166 cells assessed as reduction in virus-induced cytopathic effect measured for 2 hrs by ELISA analysis; type: functional, organism-based; conditions: Human immunodeficiency virus 1, NL4-3, C8166, 2 h
[16] = system: Human immunodeficiency virus 1; test: Antiviral activity against HIV-1 NL4-3 harboring reverse transcriptase V108I mutant infected in human C8166 cells assessed as reduction in virus-induced cytopathic effect measured for 2 hrs by ELISA analysis; type: functional, organism-based; conditions: Human immunodeficiency virus 1, NL4-3, C8166, 2 h
[17] = Cytotoxicity against human PBMC cells assessed as reduction in cell growth measured after 3 days by MTT assay; type: functional; conditions: 72 h, time 3 day
[18] = system: Human immunodeficiency virus 1; test: Antiviral activity against HIV-1 IIIB infected in human […] cells at 0.03 MOI assessed as reduction in viral replication incubated for 2 hrs by ELISA analysis; type: functional, organism-based; conditions: Human immunodeficiency virus 1, IIIB, C8166, 2 h
[19] = system: Human immunodeficiency virus 1; test: Antiviral activity against wild type HIV-1 NL4-3 harboring reverse transcriptase infected in human C8166 cells assessed as reduction in virus-induced cytopathic effect measured for 2 hrs by ELISA analysis; type: functional, organism-based; conditions: Human immunodeficiency virus 1, NL4-3, C8166, 2 h
[20] = system: Human immunodeficiency virus 1; test: Antiviral activity against HIV-1 NL4-3 harboring reverse transcriptase V106M mutant infected in human C8166 cells assessed as reduction in virus-induced cytopathic effect measured for 2 hrs by ELISA analysis; type: functional, organism-based; conditions: Human immunodeficiency virus 1, NL4-3, C8166, 2 h
[21] = system: Human immunodeficiency virus 1; test: Antiviral activity against HIV1 harboring Y188H mutant infected in MT4 cells assessed as virus-induced cytopathicity treated for 5 days by MTT assay; type: functional, organism-based; conditions: Human immunodeficiency virus 1, MT4, 120 h
[22] = system: Human immunodeficiency virus 1; test: Antiviral activity against HIV1 harboring Y181C mutant infected in human MT4 cells; type: functional, organism-based; conditions: Human immunodeficiency virus 1, MT4
[23] = system: Human immunodeficiency virus 1; test: Antiviral activity against HIV-1 harboring L100I mutant infected in human MT4 cells assessed as virus-induced cytopathicity treated for 5 days by MTT assay; type: functional, organism-based; conditions: Human immunodeficiency virus 1, MT4, 120 h
[24] = system: Human immunodeficiency virus 1; test: Antiviral wild type activity against HIV-1 IIIB infected in human C8166 cells assessed as reduction in virus-induced cytopathic effect incubated for 3 days by MTT assay; type: functional, organism-based; conditions: Human immunodeficiency virus 1, IIIB, C8166, 72 h
[25] = system: Human immunodeficiency virus 1; test: Antiviral activity against HIV-1 IIIB infected in human C8166 cells assessed as reduction in virus-induced cytopathic effect incubated for 3 days by MTT assay; type: functional, organism-based; conditions: Human immunodeficiency virus 1, IIIB, C8166, 72 h
[26] = system: Human immunodeficiency virus 1; test: Antiviral wild type activity against HIV-1 WAN infected in human PBMC cells assessed as reduction in virus-induced cytopathic effect incubated for 3 days by MTT assay; type: functional, organism-based; conditions: Human immunodeficiency virus 1, WAN, 72 h
[27] = system: Human immunodeficiency virus 1; test: Antiviral […] activity against HIV-1 A17 harboring reverse transcriptase K103N/Y181C double mutant infected in human C8166 cells assessed as reduction in virus-induced cytopathic effect incubated for 3 days by MTT assay; type: functional, organism-based; conditions: Human immunodeficiency virus 1, A17, C8166, 72 h
[28] = system: Human immunodeficiency virus 1; test: Antiviral wild type activity against HIV-1 TC-1 infected in human PBMC cells assessed as reduction in virus-induced cytopathic effect incubated for 3 days by MTT assay; type: functional, organism-based; conditions: Human immunodeficiency virus 1, TC-1, PBMC, 72 h
[29] = system: Human immunodeficiency virus 1; test: Antiviral wild type activity against HIV-1 Ba-L infected in human TZM-bl cells assessed as reduction in virus-induced cytopathic effect incubated for 3 days by MTT assay; type: functional, organism-based; conditions: Human immunodeficiency virus 1, Ba-L, 72 h
[30] = target: T1, Human immunodeficiency virus type 1 reverse transcriptase; test: Binding affinity to wild type HIV-1 reverse transcriptase assessed as inhibition constant
[31] = system: Human immunodeficiency virus 1; test: Antiviral activity against wild type HIV-1 NL4-3 infected in human MT4 cells assessed as reduction in viral replication measured for 72 hrs by ELISA analysis; type: functional, organism-based; conditions: Human immunodeficiency virus 1, NL4-3, MT4, 72 h
[32] = target: Reverse transcriptase (Human immunodeficiency virus 1, UniProt Q9WKE8, K103N); test: Binding affinity to HIV-1 reverse transcriptase K103N mutant assessed as inhibition constant
[33] = system: Hepatitis B virus; test: Antiviral activity against Hepatitis B virus infected in human HepG2.2.15 cells assessed as inhibition of HBV DNA production by qRT-PCR analysis; type: functional, organism-based
[34] = system: Bacillus subtilis; test: Antibacterial activity against Bacillus subtilis; type: functional
[35] = system: Staphylococcus aureus; test: Antibacterial activity against Staphylococcus aureus; type: functional
[36] = system: dengue virus type 4; test: Antiviral activity Dengue virus 4; type: functional, organism-based
[37] = system: dengue virus type 3; test: Antiviral activity Dengue virus 3; type: functional, organism-based
[38] = Cytotoxicity against African green monkey Vero cells; type: toxicity, cell-based; conditions: chlorocebus sabaeus
[39] = system: dengue virus type 2; test: Antiviral activity Dengue virus 2; type: functional, organism-based
[40] = system: dengue virus type 1; test: Antiviral activity Dengue virus 1; type: functional, organism-based
[41] = Inhibition of HIV-1 Reverse transcriptase G190S mutant; parameters: species or system Human immunodeficiency virus 1
[42] = system: Sindbis virus; test: Antiviral activity against Sindbis virus infected in Vero cells assessed as reduction in viral growth incubated for 96 hrs by plaque assay; type: functional, organism-based
[43] = system: Rubella virus; test: Antiviral activity against Rubella virus infected in Vero cells assessed as reduction in viral growth incubated for 96 hrs by plaque assay; type: functional, organism-based
[44] = system: Vesicular stomatitis virus; test: Antiviral activity against Vesicular stomatitis virus infected in Vero cells assessed as inhibition of cytopathic effect measured after 96 hrs by fluorescence based CPE reduction method; type: functional, organism-based
[45] = system: Human immunodeficiency virus 1; test: Antiviral activity against HIV-1 harboring L100I mutant infected in human MT4 cells assessed as […]; type: functional, organism-based; conditions: Human immunodeficiency virus 1, MT4
[46] = system: Human immunodeficiency virus 1; test: Antiviral activity against HIV1 harboring K103N mutant infected in MT4 cells; type: functional, organism-based; conditions: Human immunodeficiency virus 1, MT4

## Nc1cc(Cl)nc(SCc2ccccc2)n1
[1]
  IC50: > 16000 nM
[2]
  EC50: 400 nM
[3]
  IC50: > 16000 nM

## CCc1c(CC2CCCCC2)nc(SCC(=O)c2ccccc2)[nH]c1=O
[4]
  CC50: > 100000 nM
[5]
  EC50: 41 nM
[6]
  EC50: 38900 nM
[7]
  CC50: > 100000 nM
[8]
  EC50: 8 nM
[9]
  EC50: 734 nM
[10]
  solubility: 4 µg/mL (≈ 10.8 µM)
[11]
  EC50: 25 nM
[12]
  IC50: 440 nM
[13]
  EC50: 5 nM
[14]
  EC50: 709 nM
[15]
  EC50: 241 nM
[16]
  EC50: 12 nM
[17]
  CC50: > 100000 nM
[18]
  EC50: 2 nM
[19]
  EC50: 7 nM
[20]
  EC50: 172 nM

## C[C@H](Sc1nc(N)cc(Cl)n1)c1cc2ccoc2cn1
[21]
  EC50: 77 nM
[22]
  EC50: 179 nM
[23]
  EC50: 39 nM

## CCc1c(CC2CCCCC2)nc(SCc2cc(-c3ccc(O)cc3)[nH]n2)[nH]c1=O
[24]
  EC50: 4 nM
[25]
  EC50: 3 nM
[26]
  EC50: 56 nM
[27]
  EC50: 2770 nM
[28]
  EC50: 14 nM
[29]
  EC50: 48 nM

## Cc1c(C(C)c2c(F)cccc2Cl)nc(N(C)C)[nH]c1=O (stereo not drawn)
[30]
  Ki: 17 nM
[31]
  EC50: 3 nM
[32]
  Ki: 750 nM

## O=c1[nH]c(SC2O[C@H](CO)[C@H](O)[C@@H](O)[C@@H]2O)nc(Cc2ccccc2)c1Cc1ccccc1 (stereo partly drawn)
[33]
  EC50: 200 nM

## Cc1ccc(-c2nc(S/C(=N/Nc3ccc(O)cc3)C(=O)c3ccc(Br)cc3)[nH]c(=O)c2C#N)cc1
[34]
  MIC: 1.17 µg/mL (≈ 2.09 µM)
[35]
  MIC: 0.19 µg/mL (≈ 0.339 µM)

## CCc1c(CC2CCCCC2)nc(SCc2n[nH]c(-c3ccc(F)c(F)c3)c2Cl)[nH]c1=O
[36]
  EC50: 8910 nM
[37]
  EC50: 7080 nM
[38]
  CC50: > 200000 nM
[39]
  EC50: 9230 nM
[40]
  EC50: 1470 nM

## N#Cc1c(-c2ccc(Br)cc2)nc(S/C(=N/Nc2ccc(O)cc2)C(=O)c2ccc(Br)cc2)[nH]c1=O
[34]
  MIC: 2.34 µg/mL (≈ 3.74 µM)
[35]
  MIC: 1.17 µg/mL (≈ 1.87 µM)

## Cc1cc(/C=C/C#N)cc(C)c1Nc1ncnc(Nc2ccc(C#N)cc2)n1
[41]
  IC50: 0.1 nM

## CCN(CC)CCc1cc(=O)[nH]c(SC)n1
[42]
  IC50: 44.3 µg/mL (≈ 184 µM)
[43]
  IC50: 3.9 µg/mL (≈ 16.2 µM)
[44]
  IC50: 29 µg/mL (≈ 120 µM)

## O=c1cc(Cc2ccccc2)nc(NCCCCO)[nH]1
[45]
  EC50: 525000 nM
[46]
  EC50: 840000 nM
